Data from US20160050895A1, “TRANSGENIC NON-HUMAN ORGANISMS WITH NON-FUNCTIONAL TSPO GENES” (AUSTRALIAN NUCLEAR SCIENCE AND TECHNOLOGY ORGANIZATION, priority 2013, published 2016).

Columns and labels:
TSPO [1] = target: T1, TSPO (Mus musculus, UniProt P50637); test: Film autoradiography of brain sections after facial nerve axotomy; type: binding; parameters: from tissue; host or cells: organs of living mice (adrenal gland, kidney, heart, liver, lung, brain); conditions: TSPO+/+ animals; after facial nerve axotomy
From the text: Procedures for facial nerve axotomy were approved by the animal ethics committee at the University of Sydney. Animals were anaesthetised using Isoflurane anaesthesia. Animals were monitored for a combination of respiration, heart rate, oxygen saturation and temperature during procedures using a variety of monitoring equipment to ensure anaesthetic depth. The surgical process commenced when foot-pad or plantar reflex could no longer be elicited. The fur on the ipsilateral (right) side of the neck was shaved from the ear downwards, and the skin cleaned using 70% ethanol. A small incision (0.5-0.7 cm in length) overlying the musculature covering the stylomastoid foramen was made. The facial nerve was identified, isolated and then transected completely. The skin of incision was closed with heal-glue. […] The animals were euthanized with CO2 3 days after the axotomy and brain tissue, including facial nerve nuclei in the brain stem and cerebellum, was immediately dissected, snap-frozen in liquid nitrogen, and then stored in −80° C. freezer until the cryostat section.
A small incision (0.5-0.7 cm) in the skin 0.5 cm dorsal and lateral to the ear was made and the facial nerve transected under an operating microscope. The incision was closed with 3M™ Vetbond™ Tissue Adhesive (St. Paul, Minn., USA). […] Mice were monitored carefully and euthanized with CO2 three days after the operation. […]

TSPO [2] = target: T1, TSPO; test: Radioligand membrane saturation binding with 3H-PK11195; parameters: Snap-frozen tissues were sectioned at 20 μm in a cryostat; from tissue; host or cells: mouse organ sections (brain, retina/eye, heart, adrenal, kidney, testis, spleen), C57BL/6 background; conditions: testicular and kidney tissue; TSPO+/- mice compared to TSPO+/+ mice
Method: Tissue samples were homogenised with T25 digital Ultra-Turrax homogenizer (Ika, Wilmington, N.C., USA) at speed setting 5 or 20000 rpm in approximately 45 mL of ice-cold TRIS buffer (pH 7.4), collected by centrifugation at 48000 g and the supernatant was then discarded. The procedure was then immediately repeated, this acts as an extra wash step to remove any soluble interfering substances to radioligand binding (Byland et al. 1993). Following the second centrifugation and removal ofsupernatant the samples were resuspended in approximately 50 volumes of ice-cold TRIS buffer (pH 7.4). Samples were aliquoted stored in −80° C. until required.
For TSPO knock-out mice studies, radioligand binding was performed using 3H-PK11195 racemate across a range of concentrations (FIG. 4). PK11195 is a TSPO specific probe. Total and non-specific binding was determined through 8 concentrations of 3H-PK11195 ranging from 0.56 nM to 20 nM. Non-specific binding was determined by the addition of 5 μM PK11195 to all concentrations of 3H-PK11195. […]
Organs were homogenised, washed twice in ice-cold 50 mM Tris-HCl (pH 7.4) by centrifugation at 48000×g, resuspended in 50 volumes of ice-cold 50 mM Tris-HCl, and protein concentration was determined using a BCA protein assay kit (Thermo Fisher Scientific). […] Non-specific binding was determined with 5 μM PK11195. […]

SMILES: CC[C@@H](C)N(C)C(=O)c1cc2ccccc2c(-c2ccccc2Cl)n1 [[^3H]PK11195]
- TSPO ligand binding in the injured facial nucleus (TSPO [1]): localised induction of TSPO ligand binding
- Specific binding using [3H]PK11195 (TSPO [2]): approximately half the signal
